# Laboratory results published in article PMC9000887, “Novel 1,2,3-Triazole-Coumarin Hybrid Glycosides and Their Tetrazolyl Analogues: Design, Anticancer Evaluation and Molecular Docking Targeting EGFR, VEGFR-2 and CDK-2” (Molecules, 2022).
# Like-named read-outs stand apart in the source and are kept apart here.
# Columns and labels:
# [1] = system: human colon (Caco-2) cancer cell line; settings: Caco-2, 100 µM
# Experimental: (§2) After 48 h incubation, the medium was aspirated and then 40 μL MTT salt (2.5 mg/mL) was added for a further 4 h. […] Doxorubicin was used as the positive control and 0.5% DMSO was used as the negative control.
# [2] = system: human prostate (PC-3) cancer cell line; assay: MTT cytotoxicity assay, PC-3
# Experimental: as §2
# [3] = system: human melanoma (A-375) cancer cell line; assay: MTT cytotoxicity assay, A-375
# Experimental: as §2
# [4] = system: human pancreatic (Paca-2) cancer cell line; assay: MTT cytotoxicity assay, Paca-2
# Experimental: as §2
# [5] = system: human melanoma (Mel-501) cancer cell line; assay: MTT cytotoxicity assay, Mel-501; settings: for IC50: read-out: IC50 (Mean ± SEM) Mel-501
# Experimental: as §2
# EGFR = EGFR (Homo sapiens, UniProt P00533); assay: In vitro kinase inhibitory assessment, EGFR (Kinase-Glo luminescence); format: biochemical; settings: mean of three values; read-out: IC50 (Mean ± SEM) EGFR
# Chain of EGFR (P00533 25-1210): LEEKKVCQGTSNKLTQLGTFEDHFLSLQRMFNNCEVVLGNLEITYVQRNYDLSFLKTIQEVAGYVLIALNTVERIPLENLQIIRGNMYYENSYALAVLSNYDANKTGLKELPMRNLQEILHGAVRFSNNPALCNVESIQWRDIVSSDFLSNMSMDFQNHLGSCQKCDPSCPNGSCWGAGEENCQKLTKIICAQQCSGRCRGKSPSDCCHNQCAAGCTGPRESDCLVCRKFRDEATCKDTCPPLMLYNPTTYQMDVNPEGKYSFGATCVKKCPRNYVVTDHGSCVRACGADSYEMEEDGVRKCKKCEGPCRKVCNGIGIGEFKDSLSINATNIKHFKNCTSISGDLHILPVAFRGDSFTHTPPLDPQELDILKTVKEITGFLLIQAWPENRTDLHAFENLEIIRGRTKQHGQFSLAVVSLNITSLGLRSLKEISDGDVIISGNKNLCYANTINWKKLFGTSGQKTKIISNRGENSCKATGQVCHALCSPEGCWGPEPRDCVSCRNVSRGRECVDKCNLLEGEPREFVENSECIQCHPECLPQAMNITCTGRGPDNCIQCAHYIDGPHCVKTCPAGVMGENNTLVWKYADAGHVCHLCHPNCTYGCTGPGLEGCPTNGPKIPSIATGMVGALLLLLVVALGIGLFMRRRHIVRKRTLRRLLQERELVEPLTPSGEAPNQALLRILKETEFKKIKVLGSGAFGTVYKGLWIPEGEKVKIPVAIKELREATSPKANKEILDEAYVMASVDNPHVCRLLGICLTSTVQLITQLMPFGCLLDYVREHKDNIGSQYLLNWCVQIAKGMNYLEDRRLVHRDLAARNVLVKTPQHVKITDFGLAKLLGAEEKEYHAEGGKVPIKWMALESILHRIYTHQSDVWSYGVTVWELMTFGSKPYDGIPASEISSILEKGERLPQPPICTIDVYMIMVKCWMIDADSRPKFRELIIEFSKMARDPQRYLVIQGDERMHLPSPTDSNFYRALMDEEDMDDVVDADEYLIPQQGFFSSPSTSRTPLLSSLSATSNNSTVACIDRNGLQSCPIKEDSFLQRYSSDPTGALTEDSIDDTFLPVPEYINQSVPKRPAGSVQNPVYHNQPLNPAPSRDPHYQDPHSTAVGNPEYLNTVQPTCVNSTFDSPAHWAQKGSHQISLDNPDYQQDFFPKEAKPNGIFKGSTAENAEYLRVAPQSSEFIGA
# VEGFR-2 = VEGFR-2 (Homo sapiens, UniProt P35968); assay: biochemical
# Chain of VEGFR-2 (P35968 20-1356): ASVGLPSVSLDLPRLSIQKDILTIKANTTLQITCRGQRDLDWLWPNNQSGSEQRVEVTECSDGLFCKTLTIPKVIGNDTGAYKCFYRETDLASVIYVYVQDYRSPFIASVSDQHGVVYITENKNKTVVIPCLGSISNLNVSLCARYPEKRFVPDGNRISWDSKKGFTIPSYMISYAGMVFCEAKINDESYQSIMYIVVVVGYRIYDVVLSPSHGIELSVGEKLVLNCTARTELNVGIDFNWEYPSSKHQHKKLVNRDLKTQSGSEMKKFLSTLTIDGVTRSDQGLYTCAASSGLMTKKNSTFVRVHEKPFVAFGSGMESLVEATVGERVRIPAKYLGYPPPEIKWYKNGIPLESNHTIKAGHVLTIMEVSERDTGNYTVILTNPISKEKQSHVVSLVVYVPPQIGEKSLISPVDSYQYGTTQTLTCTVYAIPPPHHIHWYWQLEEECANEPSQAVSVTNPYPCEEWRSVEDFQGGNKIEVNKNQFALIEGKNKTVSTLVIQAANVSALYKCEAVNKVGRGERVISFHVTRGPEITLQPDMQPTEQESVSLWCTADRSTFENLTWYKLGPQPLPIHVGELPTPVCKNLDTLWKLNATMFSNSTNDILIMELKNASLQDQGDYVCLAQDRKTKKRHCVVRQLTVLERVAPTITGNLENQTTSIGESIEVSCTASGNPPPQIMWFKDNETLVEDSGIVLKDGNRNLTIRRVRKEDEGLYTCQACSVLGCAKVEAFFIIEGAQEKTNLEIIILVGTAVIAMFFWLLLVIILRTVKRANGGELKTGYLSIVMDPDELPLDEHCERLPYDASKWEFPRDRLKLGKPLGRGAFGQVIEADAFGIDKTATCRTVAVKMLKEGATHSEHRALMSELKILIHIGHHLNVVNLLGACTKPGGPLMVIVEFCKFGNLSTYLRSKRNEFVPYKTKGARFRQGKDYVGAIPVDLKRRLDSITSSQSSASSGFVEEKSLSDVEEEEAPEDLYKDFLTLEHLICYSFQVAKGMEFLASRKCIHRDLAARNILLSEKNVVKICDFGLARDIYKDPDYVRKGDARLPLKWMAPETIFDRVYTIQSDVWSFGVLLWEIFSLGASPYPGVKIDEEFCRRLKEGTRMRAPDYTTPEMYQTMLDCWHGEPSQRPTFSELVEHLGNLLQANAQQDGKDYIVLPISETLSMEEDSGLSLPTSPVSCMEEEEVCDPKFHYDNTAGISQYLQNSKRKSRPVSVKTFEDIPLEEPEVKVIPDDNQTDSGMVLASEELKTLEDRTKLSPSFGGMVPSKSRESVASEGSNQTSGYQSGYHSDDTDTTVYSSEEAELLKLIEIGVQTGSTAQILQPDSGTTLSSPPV
# Experimental: The cells were harvested, and the homogenates were prepared in saline using a tight pestle homogenizer until complete cell disruption. The kit used a double-antibody sandwich enzyme-linked immunosorbent assay (ELISA) to determine the level of human VEGFR-2 in samples. A monoclonal antibody for VEGFR-2 was pre-coated onto 96-well plates. The test samples were added to the wells and a biotinylated detection polyclonal antibody from goat specific for VEGFR-2 was added, subsequently followed by washing with PBS buffer. Avidin–Biotin–Peroxidase complex was added, and the unbound conjugates were washed away with PBS buffer. HRP substrate TMB was used to visualize HRP enzymatic reaction. TMB was catalysed by HRP to produce a blue colour product that changed into yellow after the addition of acidic stop solution. The density of yellow colour is proportional to the human VEGFR-2 amount of the sample captured in the plate. The chroma of colour and the concentration of the human VEGFR-2 of the samples were positively correlated and the optical density was determined at 450 nm. The level of human VEGFR-2 in samples was calculated (pg/mL) as duplicate determinations from the standard curve. The % inhibition was calculated in comparison to control untreated cells.
# CDK-2/cyclin A2 = CDK-2/cyclin A2 (Homo sapiens, UniProt P24941); assay: In vitro kinase inhibitory assessment, CDK-2/cyclin A2 (ELISA); format: biochemical; settings: mean of three values; read-out: IC50 (Mean ± SEM) CDK-2/Cyclin A2
# Experimental: Assay of CDK-2/cyclin A2 was achieved through ELISA using an affinity tag labelled capture antibody. Adding the samples and the standard to the wells was carried out after the addition of the antibody mix. After the incubation period, the unrestrained substance was discarded and the wells were washed. The added TMB (3,3′,5,5′-tetramethylbenzidine) substrate was prompted by Horseradish peroxidase (HRP) and blue coloration appeared. This reaction was stopped with the addition of stop solution to complete the change in colour from blue to yellow. The created signals were equivalent to the quantity of bound analyte and Robonik P2000 ELISA reader was used to record the intensity at a certain wavelength (450 nm). The concentrations of the screened compounds were calculated through the plotted curve.
# Paca-2 cells [6] = assay: Cell cycle analysis by flow cytometry (PI staining); format: cell-based, human; settings: Paca-2, 24 h at IC50 (10.7 μM)
# Experimental: (§1) Apoptosis investigation and cell cycle analysis were elucidated by flow cytometry. Paca-2 cells were seeded at 8 × 10^4 and incubated at 37 °C in 5% CO2 overnight. […] For cell cycle analysis, cell pellets were fixed with 70% ethanol on ice for 15 min and collected again. The pellets were incubated with propidium iodide (PI) staining solution at room temperature for 1 h and analysed by a Gallios flow cytometer (Beckman Coulter, Brea, CA, USA). Apoptosis detection was carried out by FITC AnnexinV/PI commercial kit (Becton Dickenson, Franklin Lakes, NJ, USA) following the manufacturer’s protocol. The samples were analysed by fluorescence-activated cell sorting (FACS) with a Gallios flow cytometer (Beckman Coulter, Brea, CA, USA) within 1 h after staining. Data were analysed using Kaluza v 1.2 (Beckman Coulter, Brea, CA, USA).
# Paca-2 cells [7] = assay: Apoptosis detection, FITC Annexin V/PI flow cytometry; format: cell-based, human; settings: Paca-2, 24 h at IC50 (10.7 μM); DMSO control 0.28%
# Experimental: as §1
# Caspase-3 = Caspase-3 protein level ELISA in Paca-2; format: cell-based, human; settings: Paca-2, 24 h at IC50 (10.7 μM)
# Text: The precoated micro-ELISA plate with an antibody specific to Caspase-3 was applied using the Human Caspase-3 ELISA Kit from Invitrogen INC. Catalog # KHO1091 (96 tests) (542 Flynn Road, Camarillo, CA, USA) according to the manufacturer’s instructions.
# Caspase-7 = Caspase-7 protein level ELISA in Paca-2; format: cell-based, human; settings: Paca-2, 24 h at IC50 (10.7 μM)
# Experimental: The micro-ELISA plate provided in this kit was pre-coated with a Caspase-7-specific antibody. A biotinylated Caspase-7 antibody and Avidin–horseradish peroxidase (HRP) conjugate was added. The excess components were removed. The substrate solution was added. Wells containing Caspase-7, biotinylated detection antibody, and Avidin-HRP conjugate appeared blue in colour. The colour turned yellow following the addition of sulphuric acid solution. The optical density (OD) was measured at a wavelength of 450 ± 2 nm.
# Cytochrome-c = Cytochrome-c ELISA in Paca-2; format: cell-based, human; settings: Paca-2, 24 h at IC50 (10.7 μM); control 0.123 ng/mL
# Experimental: Cytochrome-c specific antibodies were precoated onto 96-well plates. Cytochrome-c were analysed by enzyme-linked immunosorbent assays (ELISAs) using commercial kits (ab119521; Abcam, Cambridge, MA, USA). The optimal dilutions were determined and ELISAs were performed according to the manufacturer’s instructions.
# PD-1 = PD-1 protein level ELISA in Paca-2; format: cell-based, human; settings: Paca-2, 24 h at IC50 (10.7 μM); untreated control 275.6 Pg/mL
# Experimental: Samples or standards were added to the wells Human PD-1 eliza kit (ab252360 Human PD-1, Abcam, Cambridge, MA, USA), followed by the antibody mix. After incubation, the wells were washed to remove unbound material. TMB Development Solution was added and during incubation was catalysed by HRP, generating blue coloration. This reaction was then stopped by the addition of Stop Solution, completing any colour change from blue to yellow. The optical density (OD) was measured at a wavelength of 450 ± 2 nm.
# [8] = system: human colon (Caco-2) cancer cell line; assay: MTT cytotoxicity assay, Caco-2
# Experimental: as §2
compound,measurement,setting,value
"4-Phenyl-7-((1-(2,3,4-tri-O-acetyl-β-D-xylopyranosyl)-2H-tetrazol-5-yl)methoxy)-2H-chromen-2-one [Compound 6]",% Inhibition Caco-2,[1],-
same,% Inhibition PC-3,"[2]; PC-3, at 100 µM, MTT",9.1%
same,% Inhibition A-375,"[3]; A-375, at 100 µM, MTT",45.8%
same,% Inhibition Paca-2,"[4]; Paca-2, at 100 µM, MTT",72.1%
same,IC50,"[4]; read-out: IC50 (Mean ± SEM) Paca-2, Paca-2, MTT, 100 to 0.78 μM, three independent determinations",60 ± 1.4 µM
same,% Inhibition Mel-501,"[5]; Mel-501, at 100 µM, MTT",71%
same,IC50,"[5]; Mel-501, MTT, three independent determinations",80.4 ± 2.1 µM
"O=c1cc(-c2ccccc2)c2ccc(OCc3nnn(CC(O)CO)n3)cc2o1 (centres unmarked) [Compound 10, 7-((2-(2,3-Dihydroxypropyl)-2H-tetrazol-5-yl)methoxy)-4-phenyl-2H-chromen-2-one]",IC50,EGFR,0.09 ± 0.21 µM
same,IC50,VEGFR-2,0.86 ± 0.25 µM
same,IC50,CDK-2/cyclin A2,0.19 ± 0.05 µM
same,increase of percentage of the cells at S phase compared to the control,Paca-2 cells [6],1.3 folds
same,increase of pre-G1 phase cells percentage compared to the control,Paca-2 cells [6],15.7 folds
same,"late/secondary cellular apoptosis (PI / Annexin V-FITC, upper right quadrant)",Paca-2 cells [7],15.55%
same,upregulation of caspase-3 protein level,Caspase-3; versus control,2.8 fold
same,caspase-3 protein level in treated cells,Caspase-3; control 95.04 Pg/mL,266.8 pg/mL
same,elevation of caspase-7 protein level,Caspase-7; versus control,4.3 fold
same,caspase-7 protein level in treated cells,Caspase-7; control 0.555 ng/mL,2.363 ng/mL
same,cytochrome-c release into the cytosol of treated cells,Cytochrome-c,0.395 ng/mL
same,PD-1 level in treated cells,PD-1,91.4 pg/mL
same,inhibition at 100 µM,"[2]; Homo sapiens, read-out: % Inhibition PC-3",99.2%
same,IC50,"[2]; Homo sapiens, read-out: IC50 (Mean ± SEM) PC-3",25.4 ± 0.5 µM
same,inhibition at 100 µM,"[3]; Homo sapiens, A-375, read-out: % Inhibition A-375",98.2%
same,IC50,"[3]; Homo sapiens, A-375, read-out: IC50 (Mean ± SEM) A-375",10.9 ± 0.1 µM
same,inhibition at 100 µM,"[4]; Homo sapiens, PaCa-2, read-out: % Inhibition Paca-2",99.9%
same,IC50,"[4]; Homo sapiens, PaCa-2, read-out: IC50 (Mean ± SEM) Paca-2",10.7 ± 0.4 µM
same,% Inhibition Caco-2,"[8]; Caco-2, at 100 µM, MTT, (-) No activity detected",99.6%
same,IC50,"[8]; read-out: IC50 (Mean ± SEM) Caco-2, Caco-2, MTT, three independent determinations",31.9 ± 0.7 µM
same,inhibition at 100 µM,"[5]; Homo sapiens, read-out: % Inhibition Mel-501",95.8%
same,IC50,[5]; Homo sapiens,8.8 ± 0.2 µM
